Laboratory results: US8802439B2, “Methods for enhancing infectivity of retroviruses” (priority 2009, dated 2014)
“Also recorded” adds a separate entry of the source.

Tests used:
[1] = test system: HIV-1-GFP; assay: Infectivity of HIV-1-GFP virions (RT-normalized), GFP fluorescence via FACS; assay type: cell-based
Description: 293T cells were transfected with HIV-1-GFP, SIV-GFP, bMLV-GFP, and nMLV-GFP proviral constructs, and in each case CMV-VSV-G, in the presence or absence of PiB or excess Pin1 as described above. Released virions were normalized via RT assay (EnzChek® Reverse Transcriptase Assay Kit), and infectivity on naïve TZMb1 cells was analyzed by GFP fluorescence via FACS (% cells infected).
(§1) Infection assays for retrovirus: Single-round infections: CD4^+ TZM-bl 100,000 cells/well/mL were seeded onto 24-well plates 24 hours prior to infection. These cells were infected in quadruplicate to 24-well plates. Infectivity was scored using an enzymatic galactosidase activity assay. Specifically, infected TZM-bl cells were washed and lysed, and 20 μl of lysate was transferred to a 96-well plate for detecting β-galactosidase activity. 100 μl of reaction buffer Galacton-Star substrate (Applied Biosystems, Bedford, Mass.), diluted 1:50, was added to 20 μl of lysate, and the light emission was measured over 1 second in a microplate luminometer after 30 minutes incubation. […] Replication was monitored by p24 ELISA. […] Viruses were used to infect in duplicate wells, incubated for 48 hours, washed with PBS, trypsinized, fixed in 1% formaldehyde and subsequently analyzed by fluorescence-activated cell sorting (FACS) for percentage cells infected.
We next asked whether Pin1 influences the infectivity of other retroviruses such as SIV, bMLV and nMLV. […] However, unlike previous experiments, virions were normalized via RT assay and infectivity in target cells was analyzed by GFP fluorescence via FACS. […] Note that the observed effect of Pin1 on HIV-1 infectivity using a different means of normalizing viruses (reverse transcriptase activity vs. p24 capsid) and a different means of quantifying infectivity (GFP), agrees with our previous findings above.
We further examined whether blocking Pin1 in producer cells can enhance the infectivity of retroviruses in different primate target cells. […] Infectivity was analyzed by GFP fluorescence via FACS. […]

[2] = test system: nMLV-GFP; assay: Infectivity of nMLV-GFP virions (RT-normalized), GFP fluorescence via FACS; assay type: cell-based; conditions: produced with PiB; TZM, OMK, sMAGI, Vero, CV-1 target cells
Description: as §1
We further examined whether blocking Pin1 in producer cells can enhance the infectivity of retroviruses in different primate target cells. […] Infectivity was analyzed by GFP fluorescence via FACS. […] If more cells are infected than the number infected by viruses from untreated cells, this is expressed as a value above 100%—e.g. 2000 cells/10,000 vs 4000 cells/10,000 would be 100% and 200% respectively. […]

[3] = test system: HCV; assay: HCV infectivity titer of supernatants from persistently infected HUH-7 cells; assay type: cell-based; conditions: PiB 16 μM and 8 μM, 1 hour pre-treatment plus 9 hours at 37° C.
Description: (§2) Cells persistently infected with HCV were treated with vehicle (DMSO), an MTP inhibitor (BMS-200150) capable of inhibiting HCV secretion, or with two doses of PiB (16 μM and 8 μM). After 1 hour of pre-treatment at 37° C., cells were washed with warm PBS and further incubated in normal medium containing the same drugs for an additional 9 hours at 37° C. Cell supernatants containing infectious HCV were collected for infectivity titer determination.
as §2, with “Infection assays for HCV: Persistently” for “Cells persistently”, “cells” for “with HCV”, “inhibitors” for “drugs”, “determination. […] Note that Pin1 is able to block HIV-1 in the HUH-7 cell line used to propagate HCV.” for “determination.”
Persistently infected HUH-7 cells were treated with solvent DMSO (circles), or increasing concentrations of PiB (squares). After 1 hour of pre-treatment cells were washed and further incubated in normal medium containing the same inhibitors for an additional 9 hours at 37° C. Cell supernatants containing infectious HCV were collected for infectivity titer determination.

[4] = test system: 293T cells; conditions: cell count and trypan blue staining (data not shown)
Source text: To examine a potential role for Pin1 in HIV-1 replication we used two inhibitors of Pin1: juglone and PiB. […] 293T cells were transfected with a proviral construct encoding wild-type HIV-1 in the presence or absence of PiB or juglone.

[5] = molecular target: Pin1 PPIase (Homo sapiens, UniProt Q13526); conditions: cited from earlier work
[6] = test system: other prolyl isomerases such as CypA or FKBP; conditions: cited from earlier work

Sequence of Pin1 PPIase (Q13526 whole entry): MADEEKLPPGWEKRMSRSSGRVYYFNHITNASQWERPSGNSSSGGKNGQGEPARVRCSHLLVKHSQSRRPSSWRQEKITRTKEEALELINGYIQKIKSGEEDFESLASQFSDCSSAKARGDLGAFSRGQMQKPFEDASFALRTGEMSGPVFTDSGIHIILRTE

CCOC(=O)CN1C(=O)c2ccc3c4c(ccc(c24)C1=O)C(=O)N(CC(=O)OCC)C3=O [PiB, diethyl-1,3,6,8-tetrahydro-1,3,6,8-tetraoxobenzo[lmn][3,8]phenanthroline-2,7-diacetate]
boost of HIV-1-GFP infectivity ([1]; produced in 293T with PiB, TZMb1 cells, % cells infected): 3 fold
infectivity of HIV-1-GFP in primate target cell panel ([1]; produced with PiB, TZM, OMK, sMAGI, Vero, CV-1 target cells): enhanced infectivity
boost of HIV-GFP infectivity in OMK cells ([1]; relative to control HIV-1 infectivity seen in sMAGI cells (no infection of OMK with control HIV-1)): 400%
infectivity of nMLV-GFP in primate target cell panel [2]: enhanced infectivity
infectious HCV in cell supernatants (infectivity titer) [3]: does not enhance HCV infectivity; also recorded: does not enhance replication
producer cell viability [4]: no effect
IC50 of Pin1 PPIase activity in vitro [5]: low mM
inhibition of other PPIase families (CypA, FKBP) [6]: do not inhibit
